{
  "source": "ChEMBL document CHEMBL1201862",
  "about": "“PubChem BioAssay data set” (2004)",
  "key": {"[1]": {"target": "Steroidogenic factor 1 (Homo sapiens, UniProt Q13285)", "sequence (Q13285 whole entry)": "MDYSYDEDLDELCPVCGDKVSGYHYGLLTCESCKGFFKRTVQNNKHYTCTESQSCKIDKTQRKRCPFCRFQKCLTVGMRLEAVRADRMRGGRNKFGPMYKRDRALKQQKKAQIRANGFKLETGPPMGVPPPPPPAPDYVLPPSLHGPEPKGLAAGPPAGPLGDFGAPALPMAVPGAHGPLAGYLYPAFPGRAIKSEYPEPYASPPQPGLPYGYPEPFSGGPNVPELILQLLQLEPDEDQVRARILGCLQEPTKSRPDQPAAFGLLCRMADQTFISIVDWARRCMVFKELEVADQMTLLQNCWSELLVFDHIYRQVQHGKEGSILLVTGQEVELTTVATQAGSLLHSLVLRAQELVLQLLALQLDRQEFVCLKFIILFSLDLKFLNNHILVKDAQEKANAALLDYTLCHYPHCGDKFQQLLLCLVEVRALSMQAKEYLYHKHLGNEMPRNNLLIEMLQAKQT", "assay": "Counterscreen for inverse agonists of the liver receptor homolog-1 (LRH-1; NR5A2): Luminescence-based cell-based high throughput dose response assay to identify inverse agonists of the Steroidogenic Factor 1 Nuclear Receptor (SF1; NR5A1).", "type": "functional"}, "[2]": {"assay": "NIH3T3 cell viability loss – ATP luminescence, mouse fibroblasts, counter-screen, dose response (AID 2010);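 further: cells exposed to compound for about 90 hours before reading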", "type": "functional, cell-based"}, "[3]": {"assay": "nonselective StAR promoter luciferase inhibitors – cell-based, luminescence, luciferase reporter, counter-screen for LRH-1 inverse agonist project, dose response (AID 651969)", "type": "functional"}, "[4]": {"target": "Nuclear receptor subfamily 5 group A member 2 (Homo sapiens, UniProt O00482)", "sequence (O00482 whole entry)": "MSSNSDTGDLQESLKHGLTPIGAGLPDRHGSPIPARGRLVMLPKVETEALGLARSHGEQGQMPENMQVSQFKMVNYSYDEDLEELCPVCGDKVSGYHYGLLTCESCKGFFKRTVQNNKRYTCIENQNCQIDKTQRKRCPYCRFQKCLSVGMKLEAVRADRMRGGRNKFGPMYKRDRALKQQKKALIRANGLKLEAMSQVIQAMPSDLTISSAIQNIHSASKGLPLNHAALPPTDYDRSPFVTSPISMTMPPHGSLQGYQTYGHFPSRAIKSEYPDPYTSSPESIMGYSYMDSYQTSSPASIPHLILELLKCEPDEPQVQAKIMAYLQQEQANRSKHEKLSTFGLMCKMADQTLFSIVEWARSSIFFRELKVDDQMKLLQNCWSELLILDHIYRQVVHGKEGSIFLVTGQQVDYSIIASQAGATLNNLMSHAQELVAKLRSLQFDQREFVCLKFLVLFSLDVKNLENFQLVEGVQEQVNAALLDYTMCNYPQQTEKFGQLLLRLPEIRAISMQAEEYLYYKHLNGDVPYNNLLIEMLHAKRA", "type": "functional, cell-based"}, "[5]": {"assay": "Trypanosoma cruzi growth suppression in host cells – NIH3T3 host cells, beta-gal luminescence, confirmation (AID 2044);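 further: intracellular parasites grown in NIH/3T3 mouse fibroblasts as host cells; luminescent beta-galactosidase reporter signal from transgenic T. cruzi replicating inside host cells; inhibitors lower the luminescence signal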", "type": "functional, cell-based"}, "[6]": {"target": "T1, Beta-lactamase (Pseudomonas aeruginosa, UniProt Q79MP6)", "T1 sequence (Q79MP6 whole entry)": "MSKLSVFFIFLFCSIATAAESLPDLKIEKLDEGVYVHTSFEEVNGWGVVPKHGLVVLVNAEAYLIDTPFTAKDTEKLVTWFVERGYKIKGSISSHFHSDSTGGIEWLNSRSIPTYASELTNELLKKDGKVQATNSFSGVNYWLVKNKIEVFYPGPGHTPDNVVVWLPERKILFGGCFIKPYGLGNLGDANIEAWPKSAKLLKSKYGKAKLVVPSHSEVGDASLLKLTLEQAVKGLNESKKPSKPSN", "assay": "inhibition of IMP-1 beta-lactamase activity – biochemical, epi-absorbance, selectivity assay for VIM-2 inhibitor project, dose response (AID 1920)"}, "[7]": {"target": "T1, Beta-lactamase", "assay": "[…] counterscreen for selective VIM-2 inhibitors: dose response biochemical high throughput screening assay to identify inhibitors of IMP-1 metallo-beta-lactamase."}, "[8]": {"target": "Dual specificity tyrosine-phosphorylation-regulated kinase 1A (Rattus norvegicus, UniProt Q63470)", "type": "biochemical, Homo sapiens"}, "[9]": {"target": "Beta-lactamase (Salmonella choleraesuis (strain SC-B67), UniProt Q5J463)", "sequence (Q5J463 whole entry)": "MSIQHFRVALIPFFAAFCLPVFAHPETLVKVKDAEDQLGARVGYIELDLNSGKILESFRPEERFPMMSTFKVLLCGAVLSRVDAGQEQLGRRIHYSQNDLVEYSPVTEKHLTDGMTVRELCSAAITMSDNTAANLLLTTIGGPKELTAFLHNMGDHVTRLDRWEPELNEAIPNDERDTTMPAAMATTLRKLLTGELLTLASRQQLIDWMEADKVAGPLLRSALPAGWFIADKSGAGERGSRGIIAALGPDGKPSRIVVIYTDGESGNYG", "assay": "Epi-absorbance-based counterscreen for selective VIM-2 inhibitors: dose response biochemical high throughput screening assay to identify inhibitors of TEM-1 serine-beta-lactamase."}, "[10]": {"assay": "Counterscreen for inhibitors of Trypanosoma brucei methionyl tRNA synthetase (MetRS): Luminescence-based cell-based high throughput dose response assay to identify compounds that are cytotoxic to Jurkat human T lymphocyte cells.", "type": "functional"}, "[11]": {"target": "T2, Methionyl-tRNA synthetase, putative (Trypanosoma brucei brucei, UniProt Q38C91)", "T2 sequence (Q38C91 whole entry)": "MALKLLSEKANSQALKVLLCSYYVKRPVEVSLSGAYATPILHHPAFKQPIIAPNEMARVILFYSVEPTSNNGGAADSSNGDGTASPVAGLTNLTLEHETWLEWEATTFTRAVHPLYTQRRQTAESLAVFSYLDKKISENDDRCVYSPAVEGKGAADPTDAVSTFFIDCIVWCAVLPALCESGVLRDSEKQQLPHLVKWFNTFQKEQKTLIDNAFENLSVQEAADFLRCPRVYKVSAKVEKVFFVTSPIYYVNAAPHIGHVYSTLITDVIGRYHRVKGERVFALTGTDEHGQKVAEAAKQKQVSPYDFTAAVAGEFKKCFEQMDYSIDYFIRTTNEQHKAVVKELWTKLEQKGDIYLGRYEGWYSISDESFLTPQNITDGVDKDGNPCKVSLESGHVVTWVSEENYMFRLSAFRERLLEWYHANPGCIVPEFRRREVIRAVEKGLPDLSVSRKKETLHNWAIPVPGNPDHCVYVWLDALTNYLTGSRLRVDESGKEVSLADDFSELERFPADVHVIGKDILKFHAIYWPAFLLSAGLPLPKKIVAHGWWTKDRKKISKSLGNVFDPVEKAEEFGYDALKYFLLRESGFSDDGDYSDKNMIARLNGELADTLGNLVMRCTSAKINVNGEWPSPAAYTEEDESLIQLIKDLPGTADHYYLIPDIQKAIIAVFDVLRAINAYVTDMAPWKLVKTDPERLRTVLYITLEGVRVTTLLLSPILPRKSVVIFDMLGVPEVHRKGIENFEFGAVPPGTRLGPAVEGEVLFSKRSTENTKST", "type": "functional, Trypanosoma brucei brucei strain 927/4 GUTat10.1"}, "[12]": {"target": "T2, Methionyl-tRNA synthetase, putative", "type": "functional, Trypanosoma brucei brucei strain 927/4 GUTat10.1", "remark": "listed apart in the source"}, "[13]": {"tested_on": "Vero", "assay": "viability of Vero cells under compound – cytotoxicity control for flavivirus capping enzyme inhibitors (AID 588742)", "type": "functional", "conditions": "Chlorocebus sabaeus"}, "[14]": {"target": "Large T antigen (Simian virus 40, UniProt P03070)", "sequence (P03070 whole entry)": "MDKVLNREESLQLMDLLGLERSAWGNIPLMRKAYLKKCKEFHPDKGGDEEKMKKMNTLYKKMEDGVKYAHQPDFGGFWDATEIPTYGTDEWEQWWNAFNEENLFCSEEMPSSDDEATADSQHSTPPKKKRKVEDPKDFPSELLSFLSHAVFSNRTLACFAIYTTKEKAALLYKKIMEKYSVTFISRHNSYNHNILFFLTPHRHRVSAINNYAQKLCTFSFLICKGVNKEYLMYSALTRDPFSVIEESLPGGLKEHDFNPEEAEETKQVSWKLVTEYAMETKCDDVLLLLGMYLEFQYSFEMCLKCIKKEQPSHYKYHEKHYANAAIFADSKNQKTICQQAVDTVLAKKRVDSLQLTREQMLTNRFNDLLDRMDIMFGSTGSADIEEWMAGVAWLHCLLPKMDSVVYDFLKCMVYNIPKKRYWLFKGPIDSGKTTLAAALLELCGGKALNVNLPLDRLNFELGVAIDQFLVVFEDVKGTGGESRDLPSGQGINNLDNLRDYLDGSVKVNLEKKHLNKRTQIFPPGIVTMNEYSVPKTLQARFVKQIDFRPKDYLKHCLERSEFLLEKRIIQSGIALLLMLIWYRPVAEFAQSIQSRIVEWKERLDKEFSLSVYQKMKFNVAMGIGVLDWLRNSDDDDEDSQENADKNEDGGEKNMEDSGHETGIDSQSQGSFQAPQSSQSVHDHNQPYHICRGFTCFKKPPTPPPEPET", "type": "functional, Betapolyomavirus macacae"}, "[15]": {"assay": "loss of viability in HepG2 cells – cell-based, CellTiter-Glo, cherry-picked, cytotoxicity control for Shn3 inhibitor project, dose response (AID 624134)", "type": "functional"}, "[16]": {"target": "Prothrombin (Bos taurus, UniProt P00735)", "assay": "thrombin protease inhibitors – biochemical, fluorescence polarization, uHTS hits, dose response (AID 602369)", "type": "functional"}, "[17]": {"assay": "non-specific 3'UTR reporter inhibition in Clone20-Shn3RL – cell-based, Renilla luciferase, cherry-picked, counter-screen for Shn3 inhibitor project, dose response (AID 624133)", "type": "functional"}, "[18]": {"target": "26S proteasome non-ATPase regulatory subunit 14 (Homo sapiens, UniProt O00487)", "sequence (O00487 whole entry)": "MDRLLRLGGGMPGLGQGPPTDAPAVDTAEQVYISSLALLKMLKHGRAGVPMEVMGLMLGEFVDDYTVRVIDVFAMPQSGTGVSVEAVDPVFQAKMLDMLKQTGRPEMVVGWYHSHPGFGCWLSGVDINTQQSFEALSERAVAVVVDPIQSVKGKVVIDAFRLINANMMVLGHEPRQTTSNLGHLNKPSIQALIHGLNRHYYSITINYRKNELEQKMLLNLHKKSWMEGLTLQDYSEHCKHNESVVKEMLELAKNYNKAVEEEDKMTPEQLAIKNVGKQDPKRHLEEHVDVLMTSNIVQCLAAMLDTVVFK", "assay": "inhibition of proteasome subunit RPN11 – biochemical, fluorescence polarization, uHTS hits, confirmation (AID 602368)", "type": "functional"}, "[19]": {"assay": "reduction of Shn3 3'UTR-driven luciferase in osteoblasts – cell-based, Clone20 osteoblasts, firefly luciferase, cherry-picked, dose response (AID 624132)", "type": "functional"}, "[20]": {"target": "72 kDa type IV collagenase (Homo sapiens, UniProt P08253)", "sequence (P08253 whole entry)": "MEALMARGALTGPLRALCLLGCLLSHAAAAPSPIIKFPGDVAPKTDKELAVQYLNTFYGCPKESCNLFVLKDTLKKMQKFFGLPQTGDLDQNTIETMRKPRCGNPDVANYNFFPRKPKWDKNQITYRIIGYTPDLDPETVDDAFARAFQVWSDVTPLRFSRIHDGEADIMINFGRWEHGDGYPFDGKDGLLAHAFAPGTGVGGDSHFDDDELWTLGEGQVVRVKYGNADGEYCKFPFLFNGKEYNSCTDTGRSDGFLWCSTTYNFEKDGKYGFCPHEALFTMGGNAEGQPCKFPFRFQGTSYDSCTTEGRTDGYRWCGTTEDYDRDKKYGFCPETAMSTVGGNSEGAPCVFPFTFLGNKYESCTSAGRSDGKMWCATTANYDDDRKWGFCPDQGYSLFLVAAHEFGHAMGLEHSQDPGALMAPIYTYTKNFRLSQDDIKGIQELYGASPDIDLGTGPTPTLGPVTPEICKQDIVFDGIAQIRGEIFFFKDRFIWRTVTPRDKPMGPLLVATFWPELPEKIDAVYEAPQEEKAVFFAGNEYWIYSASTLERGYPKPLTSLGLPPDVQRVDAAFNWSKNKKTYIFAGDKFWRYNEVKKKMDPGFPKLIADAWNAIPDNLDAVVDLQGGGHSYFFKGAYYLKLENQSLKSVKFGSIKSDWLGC", "assay": "Dose Response validation of uHTS RPN11 inhibitor hits using a MMP-2 Fluorescence assay.", "type": "functional"}, "[21]": {"target": "T3, Endoribonuclease toxin MazF (Escherichia coli K-12, UniProt P0AE70)", "T3 sequence (P0AE70 whole entry)": "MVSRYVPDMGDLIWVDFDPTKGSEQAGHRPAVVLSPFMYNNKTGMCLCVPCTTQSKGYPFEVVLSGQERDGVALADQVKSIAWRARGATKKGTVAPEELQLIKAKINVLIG", "assay": "substrate-only fluorescence increase artefacts – biochemical, single-stranded RNase substrate, counter-screen for MazEF activator project, dose response (AID 588502)", "type": "functional"}, "[22]": {"target": "T3, Endoribonuclease toxin MazF", "assay": "activation of MazEF endoribonuclease cleavage – biochemical, fluorescence, single-stranded RNA substrate, uHTS hits, dose response (AID 588481)", "type": "functional"}, "[23]": {"target": "T4, Sentrin-specific protease 1 (Homo sapiens, UniProt Q9P0U3)", "T4 sequence (Q9P0U3 whole entry)": "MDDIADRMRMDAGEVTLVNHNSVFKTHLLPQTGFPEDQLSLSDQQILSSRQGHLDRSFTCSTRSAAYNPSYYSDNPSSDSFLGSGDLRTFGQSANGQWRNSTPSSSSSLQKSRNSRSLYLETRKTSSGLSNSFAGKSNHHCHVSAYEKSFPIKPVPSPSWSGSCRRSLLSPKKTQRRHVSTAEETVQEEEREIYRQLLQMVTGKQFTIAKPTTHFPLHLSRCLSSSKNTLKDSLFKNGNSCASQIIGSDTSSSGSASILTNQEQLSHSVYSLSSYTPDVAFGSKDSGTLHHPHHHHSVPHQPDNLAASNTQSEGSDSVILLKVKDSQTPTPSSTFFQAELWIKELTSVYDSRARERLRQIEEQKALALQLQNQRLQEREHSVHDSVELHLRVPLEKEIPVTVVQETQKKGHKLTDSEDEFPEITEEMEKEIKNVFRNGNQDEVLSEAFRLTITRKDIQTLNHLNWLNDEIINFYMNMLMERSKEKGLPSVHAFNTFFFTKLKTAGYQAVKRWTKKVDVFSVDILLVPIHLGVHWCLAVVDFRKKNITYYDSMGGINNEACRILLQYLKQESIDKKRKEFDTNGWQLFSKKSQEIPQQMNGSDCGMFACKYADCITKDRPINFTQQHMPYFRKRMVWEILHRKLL", "assay": "Dose response confirmation of small molecule inhibitors of the catalytic domain of the SUMO protease, SENP1 in a FRET assay.", "type": "functional", "conditions": "read-out: IC50_Mean"}, "[24]": {"target": "T4, Sentrin-specific protease 1", "assay": "SENP1 catalytic domain blockers, concentration series – biochemical, kinetic FRET, dose response (AID 651697)", "type": "functional", "conditions": "read-out: IC50_Mean"}},
  "note": "Activity calls are given as the source filed them.",
  "data": [
    {"smiles": "CN1CCN(c2ccc(S(=O)(=O)N3CCCCC3)cc2NC(=O)COc2ccc([N+](=O)[O-])cc2)CC1", "values": [
      {"measurement": "IC50", "setting": "[1]", "result": "1.48 µM (active)"},
      {"measurement": "EC50", "setting": "[2]", "result": "> 30 µM (not active)"},
      {"measurement": "IC50", "setting": "[3]", "result": "35.9 µM (inactive)"},
      {"measurement": "IC50", "setting": "[4]", "result": "35.9 µM (inactive)"},
      {"measurement": "EC50", "setting": "[5]", "result": "0.353 µM (active)"}
    ]},
    {"smiles": "O=C(O)c1[nH]c2ccc(Cl)cc2c1CCN1C(=O)c2ccccc2C1=O", "values": [
      {"measurement": "IC50", "setting": "[6]", "result": "> 59.6 µM (inactive)"},
      {"measurement": "IC50", "setting": "[7]", "result": "> 59.6 µM (inactive)"},
      {"measurement": "AC50", "setting": "[8]", "result": "13.6 µM (active)"},
      {"measurement": "IC50", "setting": "[9]", "result": "> 59.6 µM (inactive)"}
    ]},
    {"smiles": "Clc1cccc(CNc2nc(-c3cccnc3)nc3ccccc23)c1", "values": [
      {"measurement": "IC50", "setting": "[10]", "result": "41.9 µM (inactive)"},
      {"measurement": "EC50", "setting": "[2]", "result": "> 60 µM (not active)"},
      {"measurement": "IC50", "setting": "[11]", "result": "16.4 µM (inactive)"},
      {"measurement": "EC50", "setting": "[5]", "result": "0.952 µM (active)"},
      {"measurement": "IC50", "setting": "[12]", "result": "32 µM (inactive)"}
    ]},
    {"smiles": "Oc1ccc(NCc2cccs2)cc1", "values": [
      {"measurement": "CC50", "setting": "[13]", "result": "> 40 µM (active)"},
      {"measurement": "IC50", "setting": "[14]", "result": "28.7 µM (active)"}
    ]},
    {"smiles": "COc1ccc(-c2cc(C(F)(F)F)nc(N3CCN(C)CC3)n2)cc1", "values": [
      {"measurement": "IC50", "setting": "[6]", "result": "> 59.6 µM (inactive)"},
      {"measurement": "IC50", "setting": "[7]", "result": "> 59.6 µM (inactive)"},
      {"measurement": "IC50", "setting": "[9]", "result": "> 59.6 µM (inactive)"}
    ]},
    {"smiles": "CC1CCCC(C)N1C(=O)CSc1nnc(NC(=O)c2cccs2)s1", "note": "(configuration not stated)", "values": [
      {"measurement": "IC50", "setting": "[6]", "result": "> 59.6 µM (inactive)"},
      {"measurement": "IC50", "setting": "[7]", "result": "> 59.6 µM (inactive)"},
      {"measurement": "IC50", "setting": "[9]", "result": "> 59.6 µM (inactive)"}
    ]},
    {"smiles": "CCc1ccc(NC(=O)C2CCN(S(=O)(=O)c3ccc4c(c3)NC(=O)C(C)S4)CC2)cc1", "note": "(configuration not stated)", "values": [
      {"measurement": "AC50", "setting": "[15]", "result": "6.54 µM (active)"},
      {"measurement": "IC50", "setting": "[16]", "result": "42 µM (active)"},
      {"measurement": "AC50", "setting": "[17]", "result": "6 µM (active)"},
      {"measurement": "IC50", "setting": "[18]", "result": "31.8 µM (active)"},
      {"measurement": "AC50", "setting": "[19]", "result": "7.08 µM (active)"},
      {"measurement": "IC50", "setting": "[20]", "result": "> 100 µM (inactive)"}
    ]},
    {"smiles": "COC(=O)CSc1nc2cc(C)ccc2cc1C#N", "values": [
      {"measurement": "EC50", "setting": "[21]", "result": "> 99 µM (inactive)"},
      {"measurement": "EC50", "setting": "[22]", "result": "> 99 µM (inactive)"}
    ]},
    {"smiles": "Cc1cc(NC(=O)CSc2nc3ccccc3cc2C#N)no1", "values": [
      {"measurement": "IC50", "setting": "[23]", "result": "11 µM (active)"},
      {"measurement": "IC50", "setting": "[24]", "result": "19.3 µM (active)"}
    ]}
  ]
}
